The text below walks through data of ChEMBL document CHEMBL1201862, “PubChem BioAssay data set” (2004).

Among the test systems are HT-29; SF-268; A498; HOP-62; NCI-H460; BT-549; MDA-MB-435; HCC 2998; KM12; SR; A549; Hs-578T; MDA-MB-231; LOX IMVI; Malme-3M; UACC-62; K562; DU-145; SK-MEL-28; COLO 205.
What all share (assay): growth of human tumour cells (NCI), 48 h

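Growth conditions: 96-well plates. Treatment: test compound, 48 hours, 5 concentrations. Analysis: linear interpolation between bracketing concentrations; unreached endpoints set to highest concentration. GI50: concentration for 50% inhibition of growth.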 Calls of active or inactive are those of the source. Cut-off read from the data, not from the text of the source: active = GI50 up to about 1.1 µM and inactive = higher. Bounds are passed on as bounds.

As for `O=C(NCCO)c1ccc(Cl)cc1`, the GI50 with HT-29, in the test on SF-268, in the test on A498, in the test with HOP-62, in the test with NCI-H460 and with BT-549 was > 100 µM (inactive) throughout. Further, the GI50 with MDA-MB-435, in the test with HCC 2998, with KM12, in the test with SR, in the test on A549 and with Hs-578T was > 100 µM (inactive) in each case. Further, the GI50 with MDA-MB-231, with LOX IMVI, in the test on Malme-3M, with UACC-62, in the test with K562 and in the test with DU-145 was > 100 µM (inactive) each time. The GI50 in the test on SK-MEL-28 is > 100 µM (inactive).
As for `O=C1CSC(c2c(O)ccc3ccccc23)N1n1c(S)nnc(/C=C/c2c(O)ccc3ccccc23)c1=O` (configuration not stated), the GI50 in the test with HT-29 was 1.27 µM (inactive); in the test on SF-268 it was 0.771 µM (active); in the test on A498, 2.76 µM (inactive); in the test with HOP-62, 4.84 µM (inactive); in the test with NCI-H460, < 0.01 µM (active); in the test with BT-549, 0.908 µM (active). In addition, the GI50 in the test on MDA-MB-435 is 0.966 µM (active); in the test with HCC 2998 it was 1.11 µM (active); with SR, 0.51 µM (active); with A549, 1.32 µM (inactive); in the test with Hs-578T, 44.4 µM (inactive); in the test on MDA-MB-231, 0.63 µM (active). In addition, the GI50 is 1.44 µM (inactive) in the test on LOX IMVI; 2.22 µM (inactive) with Malme-3M; 0.705 µM (active) in the test with UACC-62; 0.521 µM (active) in the test with K562; 2.01 µM (inactive) in the test on DU-145.
On to `O=C1N/C(=N/N=C\C(O)C(O)C(O)C(O)CO)N/C1=C\c1ccc(Cl)cc1` (configuration not stated), for which the GI50 is 17.4 µM (inactive) with HT-29; 3.61 µM (inactive) in the test on SF-268; 11.5 µM (inactive) in the test with A498; 2.72 µM (inactive) in the test with HOP-62; 15.7 µM (inactive) in the test with NCI-H460; 5.52 µM (inactive) in the test with BT-549. Moreover, the GI50 with MDA-MB-435 is 7.14 µM (inactive); with HCC 2998 it was 12.4 µM (inactive); in the test on KM12 it was 22.1 µM (inactive); in the test on SR, 4.04 µM (inactive); in the test with COLO 205 it was 8 µM (inactive); with A549 it was 27.2 µM (inactive). Besides, the GI50 in the test on Hs-578T was 2.48 µM (inactive); with MDA-MB-231, 4.81 µM (inactive); in the test with LOX IMVI it was 5.5 µM (inactive); with Malme-3M it was 2.76 µM (inactive); with UACC-62 it was 0.571 µM (active); in the test on K562, 10.6 µM (inactive). For the same compound, the GI50 in the test on DU-145 is 15.2 µM (inactive); in the test with SK-MEL-28 it was 8.55 µM (inactive).
With `C[n+]1c(Cl)cn2c3nc4ccccc4nc3c([O-])c(C#N)c21`, the GI50 with HT-29 is > 100 µM (inactive); with SF-268 it was > 81.3 µM (inactive); in the test with A498 it was > 62.7 µM (inactive); in the test with HOP-62, > 10 µM (inactive); in the test with NCI-H460, 9.48 µM (inactive); with BT-549 it was > 100 µM (inactive). The GI50 with MDA-MB-435 is > 100 µM (inactive); in the test on HCC 2998 it was > 10 µM (inactive); with KM12, > 10 µM (inactive); in the test with SR it was > 74.8 µM (inactive); with COLO 205, > 100 µM (inactive); with A549, > 100 µM (inactive). Also, the GI50 in the test with Hs-578T is > 100 µM (inactive); in the test with MDA-MB-231, > 100 µM (inactive); in the test with LOX IMVI, > 100 µM (inactive); with Malme-3M it was > 100 µM (inactive); in the test with UACC-62, > 92.7 µM (inactive); with K562 it was > 100 µM (inactive). Moreover, the GI50 with DU-145 and in the test on SK-MEL-28 was > 100 µM (inactive) throughout.
For the compound `C=CCn1c(N)c(C#N)c(C#N)c1-c1ccccc1`, the GI50 in the test on HT-29, with SF-268, in the test with A498, with HOP-62, with BT-549 and with MDA-MB-435 was > 100 µM (inactive) throughout. For the same compound, the GI50 with HCC 2998, with KM12, with SR, with COLO 205, with A549 and in the test on Hs-578T was > 100 µM (inactive) in each case. Also, the GI50 in the test on MDA-MB-231, in the test on LOX IMVI, with Malme-3M, in the test on UACC-62, with K562 and in the test with DU-145 was > 100 µM (inactive) throughout.
As for `C=C1C(=O)OC2/C=C(\CO)C3OC3C3OC3(C)CC(OC(=O)/C(=C/C)COC(C)=O)C12` (configuration not stated), the GI50 in the test with HT-29 was 3.89 µM (inactive); in the test on SF-268 it was 11.2 µM (inactive); in the test with A498 it was 13.8 µM (inactive); in the test on HOP-62, 21.6 µM (inactive); with NCI-H460 it was 12.2 µM (inactive); in the test on BT-549, 1.77 µM (inactive). Further, the GI50 with MDA-MB-435 is 2.59 µM (inactive); with HCC 2998, 16.5 µM (inactive); in the test with KM12 it was 7.31 µM (inactive); in the test on SR, 2.09 µM (inactive); with COLO 205, 1.63 µM (inactive); in the test on A549, 18.6 µM (inactive). Further, the GI50 with Hs-578T was 3.7 µM (inactive); with MDA-MB-231, 6.04 µM (inactive); in the test with LOX IMVI it was 1.51 µM (inactive); in the test on Malme-3M, 1.67 µM (inactive); in the test with UACC-62, 2.86 µM (inactive); in the test on K562 it was 16 µM (inactive). In addition, the GI50 is 17.1 µM (inactive) in the test on DU-145 and 1.82 µM (inactive) in the test with SK-MEL-28.
With `COC(=O)C1(Cc2ccc3c(c2)CCC3)Cc2ccccc2C1=O` (configuration not stated), the GI50 is 5.46 µM (inactive) in the test with HT-29; 22.1 µM (inactive) with SF-268; 18.4 µM (inactive) with A498; 14.2 µM (inactive) with HOP-62; 28.4 µM (inactive) with NCI-H460; 11.5 µM (inactive) in the test with BT-549. Moreover, the GI50 is 2.97 µM (inactive) in the test on MDA-MB-435; 14.6 µM (inactive) with HCC 2998; 1.55 µM (inactive) in the test on KM12; 6.47 µM (inactive) in the test on SR; 9.66 µM (inactive) in the test on COLO 205; 21.1 µM (inactive) in the test with A549. For the same compound, the GI50 in the test with Hs-578T is 13.4 µM (inactive); with MDA-MB-231, 27.2 µM (inactive); with LOX IMVI, 10.5 µM (inactive); with Malme-3M, 17.5 µM (inactive); with UACC-62, 8.43 µM (inactive); with K562, 3.31 µM (inactive). For the same compound, the GI50 in the test on DU-145 is 16.6 µM (inactive); in the test with SK-MEL-28, 7.14 µM (inactive).
In the case of `CCCCCCCC/C=C\CCCCCCCC(=O)OC[C@]1(CO)CCC(=O)O1`, the GI50 with HT-29, in the test on SF-268, in the test with A498, in the test with HOP-62, in the test on NCI-H460 and in the test on BT-549 was > 100 µM (inactive) in each case. Also, the GI50 with MDA-MB-435, in the test on HCC 2998, with KM12, with SR, in the test with COLO 205 and with A549 was > 100 µM (inactive) each time. Also, the GI50 with Hs-578T, in the test with MDA-MB-231, in the test with LOX IMVI, in the test on Malme-3M, in the test on UACC-62 and in the test with K562 was > 100 µM (inactive) each time. The GI50 with DU-145 and in the test with SK-MEL-28 was > 100 µM (inactive) throughout.
In the case of `C/C=C(\C)c1cc(=O)c2c(C)cc3c(c2o1)C(OC)(OC(C)=O)c1c(O)c(C2CC(C)(N(C)C)C(OC(C)=O)C(C)O2)cc(C2CC(N(C)C)C(OC(C)=O)C(C)O2)c1C3=O` (configuration not stated), the GI50 is 0.489 µM (active) with HT-29; 0.27 µM (active) in the test with SF-268; 1.27 µM (inactive) in the test with A498; 0.621 µM (active) in the test on HOP-62; 2.27 µM (inactive) with BT-549; 1.52 µM (inactive) in the test with MDA-MB-435. The GI50 with HCC 2998 is 0.0218 µM (active); in the test on KM12 it was 1.14 µM (inactive); in the test on SR, 0.0251 µM (active); with COLO 205 it was 1.24 µM (inactive); in the test with A549 it was 0.514 µM (active); in the test with Hs-578T it was 1.16 µM (inactive). The GI50 was 0.178 µM (active) in the test with MDA-MB-231; 0.512 µM (active) in the test on LOX IMVI; 0.544 µM (active) with Malme-3M; 1.22 µM (inactive) in the test with UACC-62; 0.239 µM (active) in the test on K562; 0.497 µM (active) in the test on DU-145. In the test with SK-MEL-28, the GI50 is 3.77 µM (inactive).
As for `CC(=O)C(O)N1C(=O)C=CC1=O` (configuration not stated), the GI50 in the test with HT-29 was 16.4 µM (inactive); in the test on SF-268, 7.05 µM (inactive); with A498 it was 18.1 µM (inactive); in the test on HOP-62 it was 19.5 µM (inactive); with NCI-H460, 3.58 µM (inactive); with BT-549, 8 µM (inactive). Also, the GI50 with MDA-MB-435 is 17.7 µM (inactive); in the test on HCC 2998, 21 µM (inactive); in the test on KM12, 18.9 µM (inactive); in the test with SR, 1.99 µM (inactive); in the test on COLO 205, 1.56 µM (inactive); in the test on Hs-578T, 7.38 µM (inactive). Besides, the GI50 in the test with MDA-MB-231 was 5.05 µM (inactive); in the test with LOX IMVI it was 4.43 µM (inactive); in the test with Malme-3M it was 2.19 µM (inactive); with UACC-62 it was 16.8 µM (inactive); in the test with K562, > 25 µM (inactive); in the test with DU-145 it was 12.8 µM (inactive). Moreover, the GI50 in the test on SK-MEL-28 is 10.4 µM (inactive).
